Data published in ChEMBL document CHEMBL1151924, “Characterization of lassa virus cell entry inhibitors: determination of the active enantiomer by asymmetric synthesis” (Bioorg Med Chem Lett, 2009).

tested on: Lassa virus; assay: Antiviral activity against LASV infected in human A549 cells; type: functional, organism-based, Mammarenavirus lassaense; conditions: Mammarenavirus lassaense, A549; read-out: IC50; call rule not given here

Question: For O=C(c1cc2ccccc2s1)N1CC(=O)N(Cc2ccc(Cl)cc2)C(Cc2ccccc2)C1 (configuration not stated), which IC50 is on record?
Answer: Its IC50 is 2100 nM.

Question: For Cc1ccc(CN2C(=O)CN(C(=O)c3ccc(C)cc3)CC2CCc2ccccc2)cc1 (configuration not stated), which IC50 is on record?
Answer: The IC50 was 1200 nM.

Question: Which IC50 does the source give for COc1ccc(CN2C(=O)CN(C(=O)c3cc4ccccc4[nH]3)CC2CCc2ccccc2)cc1 (configuration not stated) here?
Answer: Its IC50 is 1700 nM.

Question: With COc1ccc(CN2C(=O)CN(C(=O)c3cc4ccccc4o3)CC2CCc2ccccc2)cc1 (configuration not stated) as the molecule, how does the IC50 read?
Answer: The IC50 was 1000 nM.

Question: Which IC50 does the source give for Cc1ccc(CN2C(=O)CN(C(=O)c3cc4ccccc4o3)C[C@H]2Cc2ccccc2)cc1 here?
Answer: The IC50 was 3000 nM.

Question: Which IC50 does the source give for O=C(c1cc2ccccc2o1)N1CC(=O)N(Cc2cccc(C(F)(F)F)c2)C(Cc2ccccc2)C1 (configuration not stated) here?
Answer: The IC50 was 1800 nM.

Question: For COc1ccc(CN2C(=O)CN(C(=O)c3cc4ccccc4[nH]3)CC2Cc2ccccc2)cc1 (configuration not stated), which IC50 is on record?
Answer: Its IC50 is 1200 nM.

Question: With COc1ccc(C(=O)N2CC(=O)N(Cc3ccc(C)cc3)C(CCc3ccccc3)C2)cc1 (configuration not stated) as the molecule, how does the IC50 read?
Answer: Its IC50 is 400 nM.

Question: With COc1ccc(CN2C(=O)CN(C(=O)c3cc4ccccc4s3)CC2CCc2ccccc2)cc1 (configuration not stated) as the molecule, how does the IC50 read?
Answer: The IC50 was 500 nM.

Question: For Cc1ccc(CN2C(=O)CN(Cc3cc4ccccc4o3)C[C@@H]2Cc2ccccc2)cc1, which IC50 is on record?
Answer: The IC50 was 10000 nM.

Question: For CCC1CN(C(=O)c2cc3ccccc3o2)CC(=O)N1Cc1cccc(C(F)(F)F)c1 (configuration not stated), which IC50 is on record?
Answer: The IC50 was 1600 nM.

Question: Which IC50 does the source give for CCC1CN(C(=O)c2cc3ccccc3[nH]2)CC(=O)N1Cc1cccc(C(F)(F)F)c1 (configuration not stated) here?
Answer: Its IC50 is 2400 nM.

Question: For O=C(c1cc2ccccc2o1)N1CC(=O)N(Cc2ccc(Cl)cc2)C(Cc2ccccc2)C1 (configuration not stated), which IC50 is on record?
Answer: The IC50 was 800 nM.

Question: For COc1ccc(CN2C(=O)CN(C(=O)c3cc4ccccc4o3)CC2Cc2ccccc2)cc1 (configuration not stated), which IC50 is on record?
Answer: The IC50 was 600 nM.

Question: For Cc1ccc(CN2C(=O)CN(C(=O)c3cc4ccccc4o3)C[C@@H]2Cc2ccccc2)cc1, which IC50 is on record?
Answer: The IC50 was 200 nM.

Question: Which IC50 does the source give for Cc1ccc(CN2CCN(C(=O)c3cc4ccccc4o3)C[C@@H]2Cc2ccccc2)cc1 here?
Answer: Its IC50 is 3100 nM.

Question: Which IC50 does the source give for Cc1ccc(CN2C(=O)CN(C(=O)c3cc4ccccc4o3)CC2Cc2ccccc2)cc1 (racemic) here?
Answer: Its IC50 is 800 nM.

same assay, conditions: a549

Question: Which IC50 does the source give for Cc1ccc(CN2C(=O)CNC[C@@H]2Cc2ccccc2)cc1 here?
Answer: Its IC50 is “Not Active”.

Question: With O=C(c1cc2ccccc2o1)N1CCN[C@@H](Cc2ccccc2)C1 as the molecule, how does the IC50 read?
Answer: Its IC50 is “Not Active”.

tested on: not listed separately; assay: Inhibition of JUNV envelope glycoprotein-mediated late endosomal pH-dependent membrane fusion by cell-cell fusion reporter assay; conditions: Mammarenavirus juninense

Question: Which IC50 does the source give for COc1ccc(CN2C(=O)CN(C(=O)c3cc4ccccc4o3)CC2CCc2ccccc2)cc1 (configuration not stated) here?
Answer: The IC50 was 200 nM.

Question: For COc1ccc(CN2C(=O)CN(C(=O)c3cc4ccccc4s3)CC2CCc2ccccc2)cc1 (configuration not stated), which IC50 is on record?
Answer: Its IC50 is 200 nM.

Question: With Cc1ccc(CN2C(=O)CN(C(=O)c3cc4ccccc4o3)CC2Cc2ccccc2)cc1 (racemic) as the molecule, how does the IC50 read?
Answer: The IC50 was 200 nM.
